Assay results as given in ChEMBL document CHEMBL1909294, “Translating clinical findings into knowledge in drug safety evaluation--drug induced liver injury prediction system (DILIps)” (PLoS Comput Biol, 2011).

Legend:
Hepatotoxicity [1] = test system: Hepatotoxicity;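 on HepSE bilirubinemia: bilirubinemia hepatic side effect score drawn from the DILIps training data, a prediction system for drug-induced liver injury; call rule not given here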;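 on HepSE cholecystitis: Cholecystitis-related hepatic side effect score drawn from the DILIps (drug-induced liver injury prediction) training data set; call rule not given here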;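 on HepSE cholelithiasis: hepatic side effect score for cholelithiasis, drawn from the DILIps training data for predicting drug-induced liver injury; call rule not given here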;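 on HepSE cirrhosis: cirrhosis hepatic side effect score taken from the DILIps (drug-induced liver injury prediction) training set; call rule not given here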;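 on HepSE elevated liver function tests: hepatic side effect score for raised liver function tests, as recorded in the DILIps training set used for predicting drug-induced liver injury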; on HepSE hepatic failure: call rule not given here;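 on HepSE hepatomegaly: hepatic side effect score for hepatomegaly, taken from the training set of the DILIps drug-induced liver injury prediction system; call rule not given here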
Hepatotoxicity [2] = test system: Hepatotoxicity; remark: listed apart in the source;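 on HepSE bilirubinemia: bilirubinemia hepatic side effect score drawn from the DILIps training data, a prediction system for drug-induced liver injury; call rule not given here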;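 on HepSE cholecystitis: Cholecystitis-related hepatic side effect score drawn from the DILIps (drug-induced liver injury prediction) training data set; call rule not given here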;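 on HepSE cholelithiasis: hepatic side effect score for cholelithiasis, drawn from the DILIps training data for predicting drug-induced liver injury; call rule not given here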;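 on HepSE cirrhosis: cirrhosis hepatic side effect score taken from the DILIps (drug-induced liver injury prediction) training set; call rule not given here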;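 on HepSE elevated liver function tests: hepatic side effect score for raised liver function tests, as recorded in the DILIps training set used for predicting drug-induced liver injury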; on HepSE hepatic failure: call rule not given here;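 on HepSE hepatomegaly: hepatic side effect score for hepatomegaly, taken from the training set of the DILIps drug-induced liver injury prediction system; call rule not given here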
Hepatotoxicity [3] = test system: Hepatotoxicity; remark: listed apart in the source;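 on HepSE bilirubinemia: bilirubinemia hepatic side effect score drawn from the DILIps training data, a prediction system for drug-induced liver injury; call rule not given here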;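 on HepSE cholecystitis: Cholecystitis-related hepatic side effect score drawn from the DILIps (drug-induced liver injury prediction) training data set; call rule not given here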;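 on HepSE cholelithiasis: hepatic side effect score for cholelithiasis, drawn from the DILIps training data for predicting drug-induced liver injury; call rule not given here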;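 on HepSE cirrhosis: cirrhosis hepatic side effect score taken from the DILIps (drug-induced liver injury prediction) training set; call rule not given here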;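 on HepSE elevated liver function tests: hepatic side effect score for raised liver function tests, as recorded in the DILIps training set used for predicting drug-induced liver injury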; on HepSE hepatic failure: call rule not given here
Hepatotoxicity [4] = test system: Hepatotoxicity; remark: listed apart in the source;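 on HepSE bilirubinemia: bilirubinemia hepatic side effect score drawn from the DILIps training data, a prediction system for drug-induced liver injury; call rule not given here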;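 on HepSE cholecystitis: Cholecystitis-related hepatic side effect score drawn from the DILIps (drug-induced liver injury prediction) training data set; call rule not given here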;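 on HepSE cholelithiasis: hepatic side effect score for cholelithiasis, drawn from the DILIps training data for predicting drug-induced liver injury; call rule not given here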;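 on HepSE cirrhosis: cirrhosis hepatic side effect score taken from the DILIps (drug-induced liver injury prediction) training set; call rule not given here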;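 on HepSE elevated liver function tests: hepatic side effect score for raised liver function tests, as recorded in the DILIps training set used for predicting drug-induced liver injury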; on HepSE hepatic failure: call rule not given here
Hepatotoxicity [5] = test system: Hepatotoxicity; remark: listed apart in the source; on HepSE hepatic failure: call rule not given here
Hepatotoxicity [6] = test system: Hepatotoxicity; remark: listed apart in the source; on HepSE hepatic failure: call rule not given here
Hepatotoxicity [7] = test system: Hepatotoxicity; remark: listed apart in the source
Hepatotoxicity [8] = test system: Hepatotoxicity; remark: listed apart in the source
Hepatotoxicity [9] = test system: Hepatotoxicity; remark: listed apart in the source
Hepatotoxicity [10] = test system: Hepatotoxicity; remark: listed apart in the source
Hepatotoxicity [11] = test system: Hepatotoxicity; remark: listed apart in the source
Hepatotoxicity [12] = test system: Hepatotoxicity; remark: listed apart in the source
Hepatotoxicity [13] = test system: Hepatotoxicity; remark: listed apart in the source
Hepatotoxicity [14] = test system: Hepatotoxicity; remark: listed apart in the source

Compound | HepSE_bilirubinemia (Hepatotoxicity [1]) | HepSE_cholecystitis (Hepatotoxicity [2]) | HepSE_cholelithiasis (Hepatotoxicity [3]) | HepSE_cirrhosis (Hepatotoxicity [4]) | HepSE_elevated liver function tests (Hepatotoxicity [5]) | HepSE_hepatic failure (Hepatotoxicity [6]) | HepSE_hepatic necrosis (Hepatotoxicity [7]) | HepSE_hepatitis (Hepatotoxicity [8]) | HepSE_hepatomegaly (Hepatotoxicity [9]) | HepSE_jaundice (Hepatotoxicity [10]) | HepSE_liver disease (Hepatotoxicity [11]) | HepSE_liver fatty (Hepatotoxicity [12]) | HepSE_liver function tests abnormal (Hepatotoxicity [13]) | HepSE_Combined Scores (Hepatotoxicity [14])
C[C@](N)(Cc1ccc(O)c(O)c1)C(=O)O [METHYLDOPA] | 0 | 0 | 0 | 0 | 0 | 0 | 0 | 1 | 0 | 1 | 0 | 0 | 1 | 3
C[C@@H](CN1CC(=O)NC(=O)C1)N1CC(=O)NC(=O)C1 [DEXRAZOXANE] | 0 | 0 | 0 | 0 | 0 | 0 | 0 | 0 | 0 | 0 | 0 | 0 | 0 | 0
GADODIAMIDE | 0 | 0 | 0 | 0 | 0 | 0 | 0 | 0 | 0 | 0 | 0 | 0 | 0 | 0
CC(C)OC(=O)CCC/C=C\C[C@@H]1[C@@H](CC[C@@H](O)CCc2ccccc2)[C@H](O)C[C@@H]1O [LATANOPROST] | 0 | 0 | 0 | 0 | 0 | 0 | 0 | 0 | 0 | 0 | 0 | 0 | 0 | 0
[Cl-].[Na+] [SODIUM CHLORIDE] | 0 | 0 | 0 | 0 | 0 | 0 | 0 | 0 | 0 | 0 | 0 | 0 | 0 | 0
COCC1=C(C(=O)O)N2C(=O)[C@@H](NC(=O)/C(=N\OC)c3csc(N)n3)[C@H]2SC1 [CEFPODOXIME] | 0 | 0 | 0 | 0 | 0 | 0 | 0 | 0 | 0 | 0 | 0 | 0 | 0 | 0
Cc1ncc([N+](=O)[O-])n1CCO [METRONIDAZOLE] | 0 | 0 | 0 | 0 | 0 | 0 | 0 | 1 | 0 | 0 | 0 | 0 | 0 | 1
C[C@]12C=CC(=O)N[C@@H]1CC[C@@H]1[C@@H]2CC[C@]2(C)[C@@H](C(=O)Nc3cc(C(F)(F)F)ccc3C(F)(F)F)CC[C@@H]12 [DUTASTERIDE] | 0 | 0 | 0 | 0 | 0 | 0 | 0 | 0 | 0 | 0 | 0 | 0 | 0 | 0
CCCC1O[C@@H]2C[C@H]3[C@@H]4CCC5=CC(=O)C=C[C@]5(C)[C@H]4[C@@H](O)C[C@]3(C)[C@]2(C(=O)CO)O1 (stereo partly drawn) [BUDESONIDE] | 0 | 0 | 0 | 0 | 0 | 0 | 0 | 0 | 0 | 0 | 0 | 0 | 0 | 0
CCc1nc(N)nc(N)c1-c1ccc(Cl)cc1 [PYRIMETHAMINE] | 0 | 0 | 0 | 0 | 0 | 0 | 0 | 0 | 0 | 0 | 0 | 0 | 0 | 0
Oc1ccc2c3c1O[C@H]1[C@@H](O)CC[C@@]4(O)[C@@H](C2)N(CC2CCC2)CC[C@]314 [NALBUPHINE] | 0 | 0 | 0 | 0 | 0 | 0 | 0 | 0 | 0 | 0 | 0 | 0 | 0 | 0
GADOBUTROL | 0 | 0 | 0 | 0 | 0 | 0 | 0 | 0 | 0 | 0 | 0 | 0 | 0 | 0
